Assay results taken from patent US20230355501A1, “COSMETIC COMPOSITION” (AJINOMOTO CO., INC., priority 2021, published 2023).

Assay: Melting point of PHC compositions by differential scanning calorimeter
Format: physicochemical
Settings: DSC7000X, approx. 2 mg, nitrogen atmosphere, from 25° C. at 5° C./min
Description: PHCs in a mixing ratio shown in Table 2 were mixed in a mortar, to prepare each sample.
Each sample in an amount of approximately 2 mg was heated under a nitrogen atmosphere using a differential scanning calorimeter DSC7000X (Hitachi High-Tech Science Corporation) with the temperature raised from 25° C. at a rate of 5° C./min. The temperature at the intersection of the base line and the inflection point of endothermic peak was taken as the melting point of the sample.

Row | SMILES | Melting point [°C]
1 | CCCCCCCCCCCCCCCCCC(=O)NC(CO)C(O)C(O)CCCCCCCCCCCCCCCC (stereo not drawn) [Sample 13, C18:0-PHS20:0] | 126.2
2 | CCCCCCCCCCCCCCCCCC(=O)NC(CO)C(O)C(O)CCCCCCCCCCCCCC (stereo not drawn) [Sample 12, C18:0-PHS18:0] | 124.2
3 | CCCCCCCCCCCCCCCCCC(=O)NC(CO)C(O)C(O)CCCCCCCCCCCC (stereo not drawn) [Sample 11, C18:0-PHS16:0] | 122.0
